Source: ChEMBL document CHEMBL1817597, “Antifungal thiopeptide cyclothiazomycin B1 exhibits growth inhibition accompanying morphological changes via binding to fungal cell wall chitin” (Bioorg Med Chem, 2011)
In brackets after ≈: the same amount, converted by molar mass. Activity calls are given as the source filed them. The rule behind the calls is not given here.

Tests used:
[1] = tested on: Staphylococcus aureus; assay: Antimicrobial activity against Staphylococcus aureus NCTC 8530 after 24 hrs by broth microdilution method; type: functional, organism-based
[2] = tested on: Staphylococcus aureus; assay: Antimicrobial activity against Staphylococcus aureus IFO 12732 after 24 hrs by broth microdilution method; type: functional, organism-based
[3] = tested on: Micrococcus luteus; assay: Antimicrobial activity against Micrococcus luteus IFO 3333 after 24 hrs by broth microdilution method; type: functional, organism-based
[4] = tested on: Proteus vulgaris; assay: Antimicrobial activity against Proteus vulgaris IFO 3851 after 24 hrs by broth microdilution method; type: functional, organism-based
[5] = tested on: Bacillus subtilis; assay: Antimicrobial activity against Bacillus subtilis IFO 3007 after 24 hrs by broth microdilution method; type: functional, organism-based
[6] = tested on: Bacillus licheniformis; assay: Antimicrobial activity against Bacillus licheniformis IFO 12107 after 24 hrs by broth microdilution method; type: functional, organism-based
[7] = tested on: Escherichia coli; assay: Antimicrobial activity against Escherichia coli IFO 3545 after 24 hrs by broth microdilution method; type: functional, organism-based
[8] = tested on: Mucor mucedo; assay: Antimicrobial activity against Mucor mucedo IFO 7684 after 24 hrs by broth microdilution method; type: functional; conditions: IFO 7684, 24 h
[9] = tested on: Fusarium oxysporum; assay: Antimicrobial activity against Fusarium oxysporum NBRC 5942 after 24 hrs by broth microdilution method; type: functional; conditions: NBRC 5942, 24 h
[10] = tested on: Fusarium oxysporum; assay: Antimicrobial activity against Fusarium oxysporum IFO 7152 after 24 hrs by broth microdilution method; type: functional; conditions: IFO 7152, 24 h
[11] = tested on: Fusarium oxysporum; assay: Antimicrobial activity against Fusarium oxysporum NBRC 30700 after 24 hrs by broth microdilution method; type: functional; conditions: NBRC 30700, 24 h
[12] = tested on: Fusarium solani; assay: Antimicrobial activity against Fusarium solani NBRC 5899 after 24 hrs by broth microdilution method; type: functional; conditions: NBRC 5899, 24 h
[13] = tested on: Fusarium solani; assay: Antimicrobial activity against Fusarium solani NBRC 8505 after 24 hrs by broth microdilution method; type: functional; conditions: NBRC 8505, 24 h
[14] = tested on: Fusarium sporotrichioides; assay: Antimicrobial activity against Fusarium sporotrichioides NBRC 33236 after 24 hrs by broth microdilution method; type: functional; conditions: NBRC 33236, 24 h
[15] = tested on: Rhizopus arrhizus; assay: Antimicrobial activity against Rhizopus oryzae IFO 4766 after 24 hrs by broth microdilution method; type: functional; conditions: IFO 4766, 24 h
[16] = tested on: Mucor mucedo; assay: Antimicrobial activity against Mucor mucedo IFO 7684 at <6.55 uM after 24 hrs by broth microdilution method; type: functional, organism-based
[17] = tested on: Fusarium oxysporum; assay: Antimicrobial activity against Fusarium oxysporum NBRC 5942 at <6.55 uM after 24 hrs by broth microdilution method; type: functional, organism-based
[18] = tested on: Fusarium oxysporum; assay: Antimicrobial activity against Fusarium oxysporum IFO 7152 at <6.55 uM after 24 hrs by broth microdilution method; type: functional, organism-based
[19] = tested on: Fusarium fujikuroi; assay: Antimicrobial activity against Gibberella fujikuroi NBRC 6349 at <6.55 uM after 24 hrs by broth microdilution method; type: functional, organism-based
[20] = tested on: Penicillium chrysogenum; assay: Antimicrobial activity against Penicillium chrysogenum IFO 4626 at <6.55 uM after 24 hrs by broth microdilution method; type: functional, organism-based
[21] = tested on: Aspergillus niger; assay: Antimicrobial activity against Aspergillus niger ATCC 6275 at <6.55 uM after 24 hrs by broth microdilution method; type: functional, organism-based
[22] = tested on: HL-60; assay: Cytotoxicity against human HL60 cells up to 65.5 uM after 24 hrs by Alamar blue assay; type: cell-based; conditions: hl-60, 24 h
[23] = tested on: LLC-PK1; assay: Cytotoxicity against pig LLC-PK1 cells up to 65.5 uM after 24 hrs by Alamar blue assay; type: cell-based, Sus scrofa; conditions: llc-pk1, 24 h
[24] = tested on: Fusarium oxysporum; assay: Antifungal activity against Fusarium oxysporum NBRC 5942 under hyperosmotic shock at 0.026 uM after 2 days by paper disc method; type: functional, organism-based
[25] = tested on: Fusarium oxysporum; assay: Antifungal activity against Fusarium oxysporum NBRC 5942 under hypoosmotic shock assessed as increase of fragility of organism at 0.026 uM after 24 hrs measured after distilled water treatment for 10 mins by microscopic analysis; type: functional, organism-based
[26] = tested on: Mucor mucedo; assay: Inhibition of chitin synthase in Mucor mucedo IFO 7684 assessed as incorporation of GlcNAc from [14C]-UDP-GlcNAc into acid-insoluble fractions at 4 ug/ml after 55 mins by liquid scintillation counting
[27] = tested on: Mucor mucedo; assay: Inhibition of RNA synthesis in Mucor mucedo IFO 7684 assessed as [8-14C]-adenine uptake into acid-insoluble fractions at 0.13 uM after 25 mins by liquid scintillation counting; type: functional, organism-based
[28] = tested on: Mucor mucedo; assay: Inhibition of total protein synthesis in Mucor mucedo IFO 7684 assessed as [U-14C]-leucine uptake into acid-insoluble fractions at 0.13 uM after 25 mins by liquid scintillation counting relative to control; type: functional; conditions: IFO 7684, 25 min
[29] = Binding affinity to chemically deacetylated chitin at 6.55 uM after 30 mins by HPLC analysis
[30] = tested on: Mucor mucedo; assay: Induction of morphological changes in Mucor mucedo IFO 7684 assessed as thickening of hyphae at 0.026 uM after 24 hrs by microscopic analysis in presence of 100 uM of PKA inhibitor H8; type: functional, organism-based
[31] = tested on: Mucor mucedo; assay: Effect on cell wall re-generation in Mucor mucedo IFO 7684 spheroplasts at 0.026 uM after 12 hrs by microscopic analysis; type: functional

## C=C1NC(=O)[C@H]2CSC(=N2)c2csc(n2)-c2ccc3c(n2)[C@H](C)NC(=O)[C@@H]2CCCN2C(=O)/C(=C/C)NC(=O)CNC(=O)[C@H](CCCNC(=N)N)NC(=O)C(C)(NC(=O)/C(=C/C)NC(=O)C2CSC(=N2)[C@H](CC(N)=O)NC3=O)SC[C@@H](C(=O)O)NC(=O)[C@H]2CSC(=N2)c2csc(n2)-c2csc1n2 [CYCLOTHIAZOMYCIN B1]
[1]
  Activity: inactive
[2]
  Activity: inactive
[3]
  Activity: inactive
[4]
  Activity: inactive
[5]
  Activity: inactive
[6]
  Activity: inactive
[7]
  Activity: inactive
[8]
  MIC: 0.039 µg/mL (≈ 0.0255 µM)
[9]
  MIC: 0.5 µg/mL (≈ 0.327 µM)
[10]
  MIC: 0.25 µg/mL (≈ 0.164 µM)
[11]
  MIC: 0.25 µg/mL (≈ 0.164 µM)
[12]
  MIC: 0.25 µg/mL (≈ 0.164 µM)
[13]
  MIC: 0.25 µg/mL (≈ 0.164 µM)
[14]
  MIC: 0.031 µg/mL (≈ 0.0203 µM)
[15]
  MIC: > 1000 µg/mL
[16]
  Activity: inactive
[17]
  Activity: inactive
[18]
  Activity: inactive
[19]
  Activity: inactive
[20]
  Activity: inactive
[21]
  Activity: inactive
[22]
  Activity: Non-toxic
[23]
  Activity: Non-toxic
[24]
  Activity: inactive
[25]
  Activity: Active
[26]
  inhibition: inactive
[27]
  inhibition: inactive
[28]
  inhibition at 0.13 µM: 37%
[29]
  Activity: inactive
[30]
  Activity: Active
[31]
  Activity: Active
